Assay results taken from patent publication US9926281B2 (priority 2014, dated 2018).
pIC50: −log10 of the molar value.

Tests used:
human TACE = human TACE (Homo sapiens (Human), UniProt P78536); conditions: read-out: TACE potency IC50
human ADAMTS-5 = human ADAMTS-5 (Homo sapiens (Human), UniProt Q9UNA0); conditions: read-out: hADAMTS-5 potency IC50
Experimental: Finally, the fluorescence is read on the Envision (Perkin Elmer) after an incubation of 90 min at 37° C.

human MMP13 = human MMP13 (Homo sapiens (Human), UniProt P45452); conditions: read-out: hMMP-13 potency IC50
Experimental: Human MMP13 is preactivated by incubated the enzyme in the same buffer complemented with 1 mM freshly prepared p-Aminophenylmercuric acetate (AMPA) for 1 hour at 37° C.

human MMP14 = human MMP14 (Homo sapiens (Human), UniProt P50281); conditions: read-out: hMMP-14 potency IC50

Chain of human TACE (P78536 whole entry, looked up, change not shown): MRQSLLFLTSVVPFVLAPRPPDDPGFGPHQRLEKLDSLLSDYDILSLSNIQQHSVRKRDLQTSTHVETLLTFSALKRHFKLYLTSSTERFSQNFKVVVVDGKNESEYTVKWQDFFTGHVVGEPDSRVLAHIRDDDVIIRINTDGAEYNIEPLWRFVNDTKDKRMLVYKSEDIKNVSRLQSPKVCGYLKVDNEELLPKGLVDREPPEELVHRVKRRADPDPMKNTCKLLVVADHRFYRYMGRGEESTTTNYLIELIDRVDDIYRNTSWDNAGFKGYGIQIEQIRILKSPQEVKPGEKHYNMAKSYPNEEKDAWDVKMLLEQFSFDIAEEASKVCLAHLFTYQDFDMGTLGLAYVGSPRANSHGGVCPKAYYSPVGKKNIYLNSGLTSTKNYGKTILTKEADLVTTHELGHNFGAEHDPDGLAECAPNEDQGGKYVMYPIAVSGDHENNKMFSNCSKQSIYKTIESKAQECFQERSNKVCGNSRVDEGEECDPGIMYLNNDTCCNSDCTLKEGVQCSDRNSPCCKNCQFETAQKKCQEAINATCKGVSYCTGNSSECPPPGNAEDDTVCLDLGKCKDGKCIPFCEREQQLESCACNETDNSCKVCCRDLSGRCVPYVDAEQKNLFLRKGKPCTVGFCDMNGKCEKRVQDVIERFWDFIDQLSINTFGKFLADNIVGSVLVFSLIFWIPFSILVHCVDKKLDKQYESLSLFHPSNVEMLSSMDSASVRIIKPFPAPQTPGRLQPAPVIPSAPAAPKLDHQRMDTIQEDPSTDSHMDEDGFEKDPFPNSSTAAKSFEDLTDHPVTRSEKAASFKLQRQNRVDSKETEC
Chain of human ADAMTS-5 (Q9UNA0 262-930): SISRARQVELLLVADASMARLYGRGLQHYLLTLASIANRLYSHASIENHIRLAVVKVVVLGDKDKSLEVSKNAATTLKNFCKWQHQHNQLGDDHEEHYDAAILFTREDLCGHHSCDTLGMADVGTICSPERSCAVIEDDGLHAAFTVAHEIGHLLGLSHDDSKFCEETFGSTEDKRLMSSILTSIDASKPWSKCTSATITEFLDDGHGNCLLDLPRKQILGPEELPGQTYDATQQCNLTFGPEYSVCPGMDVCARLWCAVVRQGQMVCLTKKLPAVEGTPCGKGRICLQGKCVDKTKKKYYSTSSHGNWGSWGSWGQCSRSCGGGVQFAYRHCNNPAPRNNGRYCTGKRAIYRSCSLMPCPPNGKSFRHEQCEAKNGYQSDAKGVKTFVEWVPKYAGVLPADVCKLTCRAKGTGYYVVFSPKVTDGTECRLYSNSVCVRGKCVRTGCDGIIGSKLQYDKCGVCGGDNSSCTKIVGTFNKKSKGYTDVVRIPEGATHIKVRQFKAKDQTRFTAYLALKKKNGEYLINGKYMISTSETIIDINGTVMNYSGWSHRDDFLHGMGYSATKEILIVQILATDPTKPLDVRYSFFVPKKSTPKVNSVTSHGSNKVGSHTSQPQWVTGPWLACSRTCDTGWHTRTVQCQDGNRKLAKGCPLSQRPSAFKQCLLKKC

Compound | pIC50 (human TACE) | pIC50 (human ADAMTS-5) | pIC50 (human MMP13) | pIC50 (human MMP14)
CC(CC1(CCNC(=O)OC(C)(C)C)NC(=O)NC1=O)C(=O)N1CCN(c2ccc(F)c(F)c2)CC1 (stereo not shown) [compound 235, tert-butyl N-[2-[4-[3-[4-(3,4-difluorophenyl)piperazin-1-yl]-2-methyl-3-oxo-propyl]-2,5-dioxo-imidazolidin-4-yl]ethyl]carbamate] | 5.88 | 7.80 | 7.67 | 7.59
COCC1(CC(C)C(=O)N2CCN(c3ccc(F)c(F)c3)[C@@H](C)C2)NC(=O)NC1=O (stereo partly drawn) [compound 226, 5-[3-[(S)-4-(3,4-difluorophenyl)-3-methyl-piperazin-1-yl]-2-methyl-3-oxo-propyl]-5-(methoxymethyl)imidazolidine-2,4-dione] | < 5.40 | 7.66 | 5.49 | 6.01
COCC1(CC(C)C(=O)N2CCN(c3cccc(Cl)c3C)[C@@H](C)C2)NC(=O)NC1=O (stereo partly drawn) [compound 232, 5-[3-[(3S)-4-(3-chloro-2-methyl-phenyl)-3-methyl-piperazin-1-yl]-2-methyl-3-oxo-propyl]-5-(methoxymethyl)imidazolidine-2,4-dione] | < 5.40 | 7.33 | < 4.70 | < 4.70
COCC1(CC(C)C(=O)N2CCN(c3cc(F)ccc3C)CC2)NC(=O)NC1=O (stereo not shown) [compound 230, 5-[3-[4-(5-fluoro-2-methyl-phenyl)piperazin-1-yl]-2-methyl-3-oxo-propyl]-5-(methoxymethyl)imidazolidine-2,4-dione] | 6.68 | 7.62 | < 4.70 | < 4.70
CC(=O)NCC1(CCC(=O)N2CCN(c3cc(Cl)cc(Cl)c3)CC2)NC(=O)NC1=O (stereo not shown) [Cpd 223, N-[[4-[3-[4-(3,5-dichlorophenyl)piperazin-1-yl]-3-oxo-propyl]-2,5-dioxo-imidazolidin-4-yl]methyl]acetamide] | < 5.40 | 7.15 | < 4.70 | < 4.70
CC(CC1(C2CNC2)NC(=O)NC1=O)C(=O)N1CCN(c2ccc(F)c(F)c2)[C@@H](C)C1 (stereo partly drawn) [compound 247, 5-(azetidin-3-yl)-5-[3-[(3S)-4-(3,4-difluorophenyl)-3-methyl-piperazin-1-yl]-2-methyl-3-oxo-propyl]imidazolidine-2,4-dione] | < 4.71 | 7.02 | < 4.70 | < 5.40
COCC1(CC(C)C(=O)N2CCN(c3cc(F)ccc3C)[C@@H](C)C2)NC(=O)NC1=O (stereo partly drawn) [compound 228, 5-[3-[(3S)-4-(5-fluoro-2-methyl-phenyl)-3-methyl-piperazin-1-yl]-2-methyl-3-oxo-propyl]-5-(methoxymethyl)imidazolidine-2,4-dione] | < 5.40 | 6.96 | < 5.40 | < 4.70
C[C@H]1CN(C(=O)CCC2(C3CC3)NC(=O)NC2=O)CCN1c1cncc(F)c1 (stereo partly drawn) [compound 261, 5-cyclopropyl-5-[3-[(3S)-4-(5-fluoro-3-pyridyl)-3-methyl-piperazin-1-yl]-3-oxo-propyl]imidazolidine-2,4-dione] | < 4.70 | 6.78 |  | < 4.70
CC(CC1(C)NC(=O)NC1=O)C(=O)N1CCN(c2cncc(Cl)c2)[C@@H](C)C1 (stereo partly drawn) [compound 276, 5-[3-[(3S)-4-(5-chloro-3-pyridyl)-3-methyl-piperazin-1-yl]-2-methyl-3-oxo-propyl]-5-methyl-imidazolidine-2,4-dione] | < 5.40 | 6.94 |  | < 4.70
CC(CC1NC(=O)NC1=O)C(=O)N1CCN(c2ccc(F)c(F)c2)[C@@H](C)C1 (stereo partly drawn) [compound 251, 5-[3-[(3S)-4-(3,4-difluorophenyl)-3-methyl-piperazin-1-yl]-2-methyl-3-oxo-propyl]imidazolidine-2,4-dione] | < 4.92 | 7.03 |  | < 5.40
C[C@H]1CN(C(=O)CCC2(c3ccccn3)NC(=O)NC2=O)CCN1c1cc(F)cc(Cl)c1 (stereo partly drawn) [compound 346, 5-[3-[(3S)-4-(3-chloro-5-fluoro-phenyl)-3-methyl-piperazin-1-yl]-3-oxo-propyl]-5-(2-pyridyl)imidazolidine-2,4-dione] | < 5.40 | 7.43 |  | < 5.40
CC(CC1(C)NC(=O)NC1=O)C(=O)N1CCN(c2cccc(-c3cn[nH]c3)c2)[C@@H](C)C1 (stereo partly shown) [compound 371] | < 5.43 | 7.38 |  | 6.17
C[C@H]1CN(C(=O)CCC2(c3cnccn3)NC(=O)NC2=O)CCN1c1cc(F)cc(Cl)c1 (stereo partly drawn) [compound 326, 5-[3-[(3S)-4-(3-chloro-5-fluoro-phenyl)-3-methyl-piperazin-1-yl]-3-oxo-propyl]-5-pyrazin-2-yl-imidazolidine-2,4-dione] | < 5.40 | 7.28 |  | < 5.40
Cc1ccc(C2(CCC(=O)N3CCN(c4ccc(F)c(Cl)c4)[C@@H](C)C3)NC(=O)NC2=O)cn1 (stereo partly drawn) [compound 287, 5-[3-[(3S)-4-(3-chloro-4-fluoro-phenyl)-3-methyl-piperazin-1-yl]-3-oxo-propyl]-5-(6-methyl-3-pyridyl)imidazolidine-2,4-dione] | < 5.40 | 7.28 |  | < 5.40
C[C@H]1CN(C(=O)CCC2(c3cnccn3)NC(=O)NC2=O)CCN1c1cc(F)cc(F)c1 (stereo partly drawn) [compound 327, 5-[3-[(3S)-4-(3,5-difluorophenyl)-3-methyl-piperazin-1-yl]-3-oxo-propyl]-5-pyrazin-2-yl-imidazolidine-2,4-dione] | < 5.40 | 7.35 |  | < 5.40
CCC1(C[C@H](C)C(=O)N2CCN(c3cncc(Cl)c3)[C@@H](C)C2)NC(=O)NC1=O (stereo partly drawn) [compound 359, 5-[(2S)-3-[4-(5-chloro-3-pyridyl)-3-methyl-piperazin-1-yl]-2-methyl-3-oxo-propyl]-5-ethyl-imidazolidine-2,4-dione] | < 4.92 | 7.08 |  | 6.01
Cc1cc(C2(CCC(=O)N3CCN(c4cc(F)cc(F)c4)[C@@H](C)C3)NC(=O)NC2=O)ccn1 (stereo partly drawn) [compound 367, 5-[3-[(3S)-4-(3,5-difluorophenyl)-3-methyl-piperazin-1-yl]-3-oxo-propyl]-5-(2-methyl-4-pyridyl)imidazolidine-2,4-dione] | < 5.40 | 7.36 |  | < 4.70
C[C@@H](CC1(C2CC2)NC(=O)NC1=O)C(=O)N1CCN(c2cccc(-c3cn[nH]c3)c2)[C@@H](C)C1 (stereo partly drawn) [compound 339, 5-cyclopropyl-5-[(2S)-2-methyl-3-[(3S)-3-methyl-4-[3-(1H-pyrazol-4-yl)phenyl]piperazin-1-yl]-3-oxo-propyl]imidazolidine-2,4-dione] | < 5.40 | 7.48 |  | 5.91
Cc1cccc(C2(CCC(=O)N3CCN(c4cc(F)cc(Cl)c4)[C@@H](C)C3)NC(=O)NC2=O)n1 (stereo partly drawn) [compound 307, 5-[3-[(3S)-4-(3-chloro-5-fluoro-phenyl)-3-methyl-piperazin-1-yl]-3-oxo-propyl]-5-(6-methyl-2-pyridyl)imidazolidine-2,4-dione] | 5.44 | 7.36 |  | < 4.70
CC(CC1(C)NC(=O)NC1=O)C(=O)N1CCN(c2ccc(F)cc2)[C@@H](C)C1 (stereo partly drawn) [compound 365, 5-[3-[(3S)-4-(4-fluorophenyl)-3-methyl-piperazin-1-yl]-2-methyl-3-oxo-propyl]-5-methyl-imidazolidine-2,4-dione] | < 5.03 | 7.14 |  | < 4.70
CC(CC1(C)NC(=O)NC1=O)C(=O)N1CCN(c2cncc(F)c2)[C@@H](C)C1 (stereo partly drawn) [compound 277, 5-[3-[(3S)-4-(5-fluoro-3-pyridyl)-3-methyl-piperazin-1-yl]-2-methyl-3-oxo-propyl]-5-methyl-imidazolidine-2,4-dione] | < 5.40 | 6.82 |  | < 4.70
Cc1cccc(C2(CCC(=O)N3CCN(c4cc(F)cc(F)c4)[C@@H](C)C3)NC(=O)NC2=O)n1 (stereo partly drawn) [compound 309, 5-[3-[(3S)-4-(3,5-difluorophenyl)-3-methyl-piperazin-1-yl]-3-oxo-propyl]-5-(6-methyl-2-pyridyl)imidazolidine-2,4-dione] | < 5.40 | 7.51 |  | < 4.70
Cc1cncc(N2CCN(C(=O)C(C)CC3(C4CC4)NC(=O)NC3=O)C[C@@H]2C)c1 (stereo partly drawn) [compound 342, 5-cyclopropyl-5-[2-methyl-3-[(3S)-3-methyl-4-(5-methyl-3-pyridyl)piperazin-1-yl]-3-oxo-propyl]imidazolidine-2,4-dione] | < 5.40 | 7.41 |  | 5.59
C[C@H]1CN(C(=O)CCC2(c3cncnc3)NC(=O)NC2=O)CCN1c1cc(F)cc(F)c1 (stereo partly drawn) [compound 332, 5-[3-[(3S)-4-(3,5-difluorophenyl)-3-methyl-piperazin-1-yl]-3-oxo-propyl]-5-pyrimidin-5-yl-imidazolidine-2,4-dione] | < 4.70 | 7.21 |  | 6.42
C[C@H]1CN(C(=O)CCC2(c3cnn(C)c3)NC(=O)NC2=O)CCN1c1cc(F)cc(F)c1 (stereo partly drawn) [compound 397, 5-[3-[(3S)-4-(3,5-difluorophenyl)-3-methyl-piperazin-1-yl]-3-oxo-propyl]-5-(1-methylpyrazol-4-yl)imidazolidine-2,4-dione] | < 5.40 | 7.43 |  | 7.59
C[C@H]1CN(C(=O)CCC2(C3CC3)NC(=O)NC2=O)CCN1c1cccc(-c2cn[nH]c2)c1 (stereo partly drawn) [compound 282, 5-cyclopropyl-5-[3-[(3S)-3-methyl-4-[3-(1H-pyrazol-4-yl)phenyl]piperazin-1-yl]-3-oxo-propyl]imidazolidine-2,4-dione] | < 4.70 | 6.96 |  | < 4.70
C[C@H]1CN(C(=O)CCC2(c3cccnc3)NC(=O)NC2=O)CCN1c1cc(F)cc(Cl)c1 (stereo partly drawn) [compound 317, 5-[3-[(3S)-4-(3-chloro-5-fluoro-phenyl)-3-methyl-piperazin-1-yl]-3-oxo-propyl]-5-(3-pyridyl)imidazolidine-2,4-dione] | < 5.40 | 7.28 |  | 6.08
